Where a name gives a salt, the structure may show the parent alone.
System: HeLa cells
Test: Secondary assay: cell proliferation inhibition WST-1, HeLa
Format: cell-based
Conditions: Homo sapiens, 48 h
Protocol: (§1) Compounds with HDAC inhibition activity, as determined using the primary assay, were subsequently evaluated using secondary cell-based assays. The following cell lines were used:
HeLa—Human cervical adenocarcinoma cell line (ATCC ref. No. CCL-2).
(§2) Cells were cultured, exposed to candidate compounds, and incubated for a time, and the number of viable cells was then assessed using the Cell Proliferation Reagent WST-1 from Boehringer Mannheim (Cat. No. 1 644 807), described below.
(§3) Cells were plated in 96-well plates at 3-10×10^3 cells/well in 100 μL of culture medium. The following day, different concentrations of candidate compounds were added and the cells incubated at 37° C. for 48 h. Subsequently, 10 μL/well of WST-1 reagent was added and the cells reincubated for 1 hour. After the incubation time, absorbance was measured.
(§4) WST-1 is a tetrazolium salt which is cleaved to formazan dye by cellular enzymes. An expansion in the number of viable cells results in an increase in the overall activity of mitochondrial dehydrogenases in the sample. This augmentation in the enzyme activity leads to an increase in the amount of formazan dye formed, which directly correlates to the number of metabolically active cells in the culture. The formazan dye produced is quantified by a scanning multiwell spectrophotometer by measuring the absorbance of the dye solution at 450 nm wavelength (reference wavelength 690 nm).
(§5) Percent activity (% activity) in reducing the number of viable cells was calculated for each test compound as: % activity={(S^c−B)/(S°−B)}×100 wherein S^c denotes signal measured in the presence of the compound being tested, S° denotes signal measured in the absence of the compound being tested, and B denotes the background signal measured in blank wells containing medium only. […] IC50 values were calculated using the software package Prism 3.0 (GraphPad Software Inc., San Diego, Calif.), setting top value at 100 and bottom value at 0.

Compound	IC50 [µM]
O=C(/C=C/c1ccc2ccccc2n1)NO [PX117449, (E)-N-Hydroxy-3-(2-quinolinyl)-2-propenamide]	1.8
O=C(/C=C/c1nc2ccccc2o1)NO [PX118835, (E)-3-(1,3-Benzoxazol-2-yl)-N-hydroxy-2-propenamide]	1.7
O=C(/C=C/c1cnc2ccccc2n1)NO [PX118840, (E)-3-(2-Quinoxalinyl)-N-hydroxy-2-propenamide sodium salt]	2.1
COc1ccc2nc(/C=C/C(=O)NO)ccc2c1Br [PX118865, (E)-3-(5-Bromo-6-methoxy-2-quinolinyl)-N-hydroxy-2-propenamide]	1.4
O=C(/C=C/c1ccnc2ccccc12)NO [PX118885, (E)-3-(4-Quinolinyl)-N-hydroxy-2-propenamide]	2.7
O=C(/C=C/c1ccc2cc(F)ccc2n1)NO [PX118886, (E)-3-(6-Fluoro-2-quinolinyl)-N-hydroxy-2-propenamide]	2.6
COc1ccc2nc(/C=C/C(=O)NO)ccc2c1 [PX118887, (E)-N-Hydroxy-3-(6-methoxy-2-quinolinyl)-2-propenamide]	1.8

The remaining compounds from weak to strong by IC50, led by results:

IC50 [µM]	Compound
33.1	Cc1nc2ccccc2nc1/C=C/C(=O)NO [PX118866, (E)-N-Hydroxy-3-(3-methyl-2-quinoxalinyl)-2-propenamide]
27.2	O=C(CCc1ccc2ccccc2n1)NO [PX118828, N-Hydroxy-3-(2-quinolinyl)propanamide]
7.2	O=C(/C=C/c1nc2ccccc2s1)NO [PX118915, (E)-3-(1,3-Benzothiazol-2-yl)-N-hydroxy-2-propenamide]
3.9	O=C(/C=C/c1ccc2cccc(OCc3ccccc3)c2n1)NO [PX118867, (E)-3-[8-(Benzyloxy)-2-quinolinyl]-N-hydroxy-2-propenamide]
2.4	Cc1ccc2nc(/C=C/C(=O)NO)ccc2c1 [PX118839, (E)-3-(6-Methyl-2-quinolinyl)-N-hydroxy-2-propenamide]
1.5	Cc1ccc2ccc(/C=C/C(=O)NO)nc2c1 [PX118869, (E)-N-Hydroxy-3-(7-methyl-2-quinolinyl)-2-propenamide]
1.3	Cc1ccc2nc(/C=C/C(=O)NO)cc(C)c2c1 [PX118864, (E)-3-(4,6-Dimethyl-2-quinolinyl)-N-hydroxy-2-propenamide]

System: JURKAT human T-cell line
Test: Secondary assay: cell proliferation inhibition WST-1, Jurkat
Format: cell-based
Conditions: Homo sapiens; Jurkat cells, 48 h
Protocol: as §1
JURKAT—Human T-cell line (ATCC no. TIB-152).
as §2, §3, §4, §5

Compound	IC50 [µM]
O=C(/C=C/c1ccc2ccccc2n1)NO [PX117449, (E)-N-Hydroxy-3-(2-quinolinyl)-2-propenamide]	1

System: not given
Test: not given
Conditions: not given

Compound	melting point
O=C(/C=C/c1ccc2ccccc2n1)NO [PX117449, (E)-N-Hydroxy-3-(2-quinolinyl)-2-propenamide]	159.5 to 160.5 °C
COc1ccc2nc(/C=C/C(=O)NO)ccc2c1Br [PX118865, (E)-3-(5-Bromo-6-methoxy-2-quinolinyl)-N-hydroxy-2-propenamide]	204 to 206 °C
O=C(/C=C/c1ccnc2ccccc12)NO [PX118885, (E)-3-(4-Quinolinyl)-N-hydroxy-2-propenamide]	204 to 206 °C
COc1ccc2nc(/C=C/C(=O)NO)ccc2c1 [PX118887, (E)-N-Hydroxy-3-(6-methoxy-2-quinolinyl)-2-propenamide]	172 to 175 °C

Continued, values first:

melting point	Compound
170 to 172 °C	Cc1nc2ccccc2nc1/C=C/C(=O)NO [PX118866, (E)-N-Hydroxy-3-(3-methyl-2-quinoxalinyl)-2-propenamide]
159 to 160 °C	O=C(CCc1ccc2ccccc2n1)NO [PX118828, N-Hydroxy-3-(2-quinolinyl)propanamide]
163 to 165 °C	O=C(/C=C/c1nc2ccccc2s1)NO [PX118915, (E)-3-(1,3-Benzothiazol-2-yl)-N-hydroxy-2-propenamide]
180 to 182 °C	O=C(/C=C/c1ccc2cccc(OCc3ccccc3)c2n1)NO [PX118867, (E)-3-[8-(Benzyloxy)-2-quinolinyl]-N-hydroxy-2-propenamide]
200 to 202 °C (dec.)	Cc1ccc2nc(/C=C/C(=O)NO)ccc2c1 [PX118839, (E)-3-(6-Methyl-2-quinolinyl)-N-hydroxy-2-propenamide]
191 to 193 °C	Cc1ccc2ccc(/C=C/C(=O)NO)nc2c1 [PX118869, (E)-N-Hydroxy-3-(7-methyl-2-quinolinyl)-2-propenamide]
199 to 201 °C	Cc1ccc2nc(/C=C/C(=O)NO)cc(C)c2c1 [PX118864, (E)-3-(4,6-Dimethyl-2-quinolinyl)-N-hydroxy-2-propenamide]

System: HDAC (HeLa cell extract)
Test: Primary assay: deacetylase activity (HDAC inhibition), HeLa cell extract
Design: species or system human
Conditions: HeLa cell extract as HDAC source; read-out: Biochemical Assay Data HDAC Inhibition (IC50) HeLa
Source text: Briefly, this assay relies on the release of radioactive acetate from a radioactively labelled histone fragment by the action of HDAC enzyme. Test compounds, which inhibit HDAC, reduce the yield of radioactive acetate. Signal (e.g., scintillation counts) measured in the presence and absence of a test compound provide an indication of that compound's ability to inhibit HDAC activity. Decreased activity indicates increased inhibition by the test compound.
The histone fragment was an N-terminal sequence from histone H4, and it was labelled with radioactively labelled acetyl groups using tritiated acetylcoenzyme A (coA) in conjunction with an enzyme which is the histone acetyltransferase domain of the transcriptional coactivator p300. […] The acetylated peptide was then separated from free acetyl coA by size exclusion chromatography on Sephadex G-15 (Sigma G-15-120), using distilled H2O as the mobile phase.
After purification of the radiolabelled histone fragment, it was incubated with a source of HDAC (e.g., an extract of HeLa cells (a rich source of HDAC), recombinantly produced HDAC1 or HDAC2) and any released acetate was extracted into an organic phase and quantitatively determined using scintillation counting. By including a test compound with the source of HDAC, that compound's ability to inhibit the HDAC was determined.
Alternatively, the activity of the compounds as HDAC inhibitors was determined using a commercially available fluorescent assay kit: (Fluor de Lys™, BioMol Research Labs, Inc., Plymouth Meeting, USA).
Extensive comparative studies have shown that Primary Assay (1) and Primary Assay (2), discussed above, yield equivalent results. Primary Assay results reported herein are (a) exclusively from (1); (b) exclusively from (2); or (c) from both (1) and (2).
The HeLa cell extract was made from HeLa cells (ATCC Ref. No. CCL-2) by freeze-thawing three times in 60 mM TrisCl pH 8.0, 450 mM NaCl, 30% glycerol. Two cell volumes of extraction buffer were used, and particulate material was centrifuged out (20800 g, 4° C., 10 min). The supernatant extract having deacetylase activity was aliquoted and frozen for storage.
Percent activity (% activity) for each test compound was calculated as: % activity={(S^c−B)/(S°−B)}×100 wherein S^c denotes signal measured in the presence of enzyme and the compound being tested, S° denotes signal measured in the presence of enzyme but in the absence of the compound being tested, and B denotes the background signal measured in the absence of both enzyme and compound being tested.

Compound	IC50 [µM]
O=C(/C=C/c1ccc2ccccc2n1)NO [PX117449, (E)-N-Hydroxy-3-(2-quinolinyl)-2-propenamide]	0.035
O=C(/C=C/c1nc2ccccc2o1)NO [PX118835, (E)-3-(1,3-Benzoxazol-2-yl)-N-hydroxy-2-propenamide]	0.032
O=C(/C=C/c1cnc2ccccc2n1)NO [PX118840, (E)-3-(2-Quinoxalinyl)-N-hydroxy-2-propenamide sodium salt]	0.042
COc1ccc2nc(/C=C/C(=O)NO)ccc2c1Br [PX118865, (E)-3-(5-Bromo-6-methoxy-2-quinolinyl)-N-hydroxy-2-propenamide]	0.218
O=C(/C=C/c1ccnc2ccccc12)NO [PX118885, (E)-3-(4-Quinolinyl)-N-hydroxy-2-propenamide]	0.068
O=C(/C=C/c1ccc2cc(F)ccc2n1)NO [PX118886, (E)-3-(6-Fluoro-2-quinolinyl)-N-hydroxy-2-propenamide]	0.044
COc1ccc2nc(/C=C/C(=O)NO)ccc2c1 [PX118887, (E)-N-Hydroxy-3-(6-methoxy-2-quinolinyl)-2-propenamide]	0.028

The next lines start with the values.

IC50 [µM]	Compound
0.25	O=C(CCc1ccc2ccccc2n1)NO [PX118828, N-Hydroxy-3-(2-quinolinyl)propanamide]
0.03	O=C(/C=C/c1nc2ccccc2s1)NO [PX118915, (E)-3-(1,3-Benzothiazol-2-yl)-N-hydroxy-2-propenamide]
0.262	O=C(/C=C/c1ccc2cccc(OCc3ccccc3)c2n1)NO [PX118867, (E)-3-[8-(Benzyloxy)-2-quinolinyl]-N-hydroxy-2-propenamide]
0.04	Cc1ccc2nc(/C=C/C(=O)NO)ccc2c1 [PX118839, (E)-3-(6-Methyl-2-quinolinyl)-N-hydroxy-2-propenamide]
0.038	Cc1ccc2ccc(/C=C/C(=O)NO)nc2c1 [PX118869, (E)-N-Hydroxy-3-(7-methyl-2-quinolinyl)-2-propenamide]
0.609	Cc1ccc2nc(/C=C/C(=O)NO)cc(C)c2c1 [PX118864, (E)-3-(4,6-Dimethyl-2-quinolinyl)-N-hydroxy-2-propenamide]

System: K11 HPV E7 transformed human keratinocyte line
Test: Secondary assay: cell proliferation inhibition WST-1, K11
Format: cell-based
Conditions: Homo sapiens, Keratinocyte; K11 cells, 48 h
Protocol: as §1
K11—HPV E7 transformed human keratinocyte line provided by Pidder Jansen-Duerr, Institut für Biomedizinische Alternsforschung, Innsbruck, Austria.
as §3, §4, §5

Compound	IC50 [µM]
O=C(/C=C/c1ccc2ccccc2n1)NO [PX117449, (E)-N-Hydroxy-3-(2-quinolinyl)-2-propenamide]	12.4

— patent US8071620B2, “Carbamic acid compounds comprising a bicyclic heteroaryl group as HDAC inhibitors” (Topotarget UK Limited, priority 2003, dated 2011)
